Laboratory results reported in ChEMBL document CHEMBL1126226, “The discovery of a new structural class of potent orally active leukotriene D4 antagonists” (Bioorg Med Chem Lett, 1992).

Legend:
[1] = biological target: T1, Cysteinyl leukotriene receptor 1 (Cavia porcellus, UniProt Q2NNR5); assay: Inhibitory concentration against [3H]Leukotriene D4 binding to guinea-pig lung membranes was determined; experiment 2; type: tissue-based, Membrane
T1 sequence (Q2NNR5 whole entry): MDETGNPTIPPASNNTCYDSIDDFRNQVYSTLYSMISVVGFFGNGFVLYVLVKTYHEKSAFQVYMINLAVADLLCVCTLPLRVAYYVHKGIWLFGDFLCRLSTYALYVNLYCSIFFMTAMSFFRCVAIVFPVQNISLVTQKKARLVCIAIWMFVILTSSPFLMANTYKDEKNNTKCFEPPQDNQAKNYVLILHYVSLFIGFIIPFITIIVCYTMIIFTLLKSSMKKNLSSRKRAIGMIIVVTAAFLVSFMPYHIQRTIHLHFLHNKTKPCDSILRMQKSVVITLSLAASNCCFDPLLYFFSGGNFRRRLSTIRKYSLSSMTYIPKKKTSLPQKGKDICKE

[2] = biological target: T1, Cysteinyl leukotriene receptor 1; assay: Inhibitory concentration against [3H]Leukotriene D4 binding to guinea-pig lung membranes was determined; experiment 1; type: tissue-based, Membrane
[3] = Plasma clearance was estimated from the AUC after 5 mg/kg intravenous dosing in rats; type: ADME, organism-based; design: dose 5 mg/kg, route intravenous; settings: rat
[4] = biological target: T1, Cysteinyl leukotriene receptor 1; assay: Inhibitory concentration against [3H]Leukotriene D4 binding to guinea-pig lung membranes was determined; type: tissue-based, Membrane
[5] = biological target: T1, Cysteinyl leukotriene receptor 1; assay: Inhibition of Leukotriene D4 induced contraction of guinea-pig trachea was determined; type: functional, tissue-based; settings: read-out: pA2 (converted)
Mus musculus [6] = assay: The compound was tested for average percentage increase of fatty acyl Co-A oxidase activity after 4 days of dosing mice at 400 mg/kg peroral administration; type: functional; settings: route oral
Rattus norvegicus [7] = assay: Percent inhibition of Antigen induced dyspnea in hyperactive rats by the compound at 0.5 mg/kg concentration was determined; type: functional
Monkey [8] = assay: Inhibition of Leukotriene D4 induced bronchoconstriction in squirrel monkey, 4 hr pretreatment at 0.1 mg/kg peroral administration; type: functional; settings: in Primates, route oral
Mus musculus [9] = assay: The compound was tested for average percentage increase of fatty acyl Co-A oxidase activity after 4 days of dosing in mice at 100 mg/kg peroral administration; type: functional; settings: route oral
Cavia porcellus = assay: Effective dose in guinea pig on intravenous administration; type: functional
Monkey [10] = assay: Inhibition of Leukotriene D4 induced bronchoconstriction in squirrel monkey, 4 hr pretreatment, 0.1 mg/kg peroral administration; type: functional; settings: in Primates, route oral
[11] = The apparent total plasma clearance in monkey; type: ADME, organism-based; settings: cercopithecidae
Mus musculus [12] = assay: The compound was tested for average percentage increase of fatty acyl Co-A oxidase activity after 4 days of dosing in mice at 400 mg/kg peroral administration; type: functional; settings: route oral
[13] = biological target: T1, Cysteinyl leukotriene receptor 1; assay: Inhibitory concentration against [3H]Leukotriene D4 binding to guinea-pig lung membranes was determined (Experiment 2); type: tissue-based, Membrane
[14] = biological target: T1, Cysteinyl leukotriene receptor 1; assay: Inhibitory concentration against [3H]Leukotriene D4 binding to guinea-pig lung membranes was determined (Experiment 1); type: tissue-based, Membrane
Rattus norvegicus [15] = assay: Percent inhibition of Antigen induced dyspnea in hyperractive rats by the compound at 0.5 mg/kg concentration was determined after peroral administration, 2 hr pretreatment; type: functional; settings: route oral

| Structure (SMILES) | IC50 [1] [nM] | IC50 [2] [nM] | clearance [3] [mL/min/kg] | IC50 [4] [nM] | further results |
| --- | --- | --- | --- | --- | --- |
| CCC(CSC(CCc1ccccc1C(=O)O)c1cccc(OCc2ccc3ccc(Cl)cc3n2)c1)C(=O)[O-].[Na+] (stereo not drawn) | 1 | 2 | 8.8 |  |  |
| CCC(CSC(CCc1ccccc1-c1nn[nH]n1)c1cccc(OCc2ccc3ccc(Cl)cc3n2)c1)C(=O)[O-].[Na+] (stereo not drawn) | 0.5 | 0.8 | 61 |  |  |
| CCC(CSC(CCc1ccccc1C(=O)NS(=O)(=O)c1ccccc1C)c1cccc(OCc2ccc3ccc(Cl)cc3n2)c1)C(=O)[O-].[Na+] (stereo not drawn) | 6.5 | 1.4 | 15 |  |  |
| O=C([O-])CCSC(CCc1ccccc1)c1cccc(OCc2ccc3ccc(Cl)cc3n2)c1.[Na+] (stereo not drawn) |  |  | 2.9 | 6.5 |  |
| C[C@@H](CS[C@@H](CCc1ccccc1C(C)(C)O)c1cccc(OCc2ccc3ccc(Cl)cc3n2)c1)C(=O)[O-].[Na+] | 7 | 5 |  |  | Kb [5]: 1.58 nM; FACO Activity (Mus musculus [6]): -7%; inhibition in vivo at 0.5 mg/kg (Rattus norvegicus [7]): 46% |
| CCOC(=O)Nc1ccccc1CCC(SCC(CC)C(=O)[O-])c1cccc(CCc2ccc3ccc(Cl)cc3n2)c1.[Na+] (stereo not drawn) | 0.6 | 0.5 | 8.8 |  |  |
| CCC[C@H](CS[C@@H](CCc1ccccc1C(C)(C)O)c1cccc(/C=C/c2ccc3ccc(Cl)cc3n2)c1)C(=O)O [L-695499] |  |  |  | 0.9 | inhibition in vivo at 0.1 mg/kg (Monkey [8]): 72%; Kb [5]: 1.58 nM; FACO Activity (Mus musculus [9]): 38%; ED50 (Cavia porcellus): 2 µg/kg |
| O=C([O-])CCSC(CCc1ccccc1C(=O)N1CCCCC1)c1cccc(OCc2ccc3ccc(Cl)cc3n2)c1.[Na+] (stereo not drawn) |  |  | 55 | 0.6 |  |
| CN(C)C(=O)CCS[C@H](SCCC(=O)O)c1cccc(/C=C/c2ccc3ccc(Cl)cc3n2)c1 [MK-571] |  |  |  | 3.9 | Kb [5]: 1.58 nM; inhibition in vivo at 0.1 mg/kg (Monkey [10]): 60%; clearance [11]: 1.2 mL/min/kg; FACO Activity (Mus musculus [12]): 62%; ED50 (Cavia porcellus): 2.8 µg/kg |
| CN(C)C(=O)CCSC(SCCC(=O)O)c1cccc(SCc2ccc3ccc(Cl)cc3n2)c1 (stereo not drawn) |  |  |  | 75 |  |
| CC(CSC(CCc1ccccc1C(C)C)c1cccc(OCc2ccc3ccc(Cl)cc3n2)c1)C(=O)[O-].[Na+] (stereo not drawn) |  |  | 2.2 | 6.3 |  |
| CN(C)C(=O)c1ccccc1CCC(SCCC(=O)[O-])c1cccc(OCc2ccc3ccc(Cl)cc3n2)c1.[Na+] (stereo not drawn) |  |  | 64 | 0.95 |  |
| C[C@H](CS[C@H](CCc1ccccc1C(C)(C)O)c1cccc(OCc2ccc3ccc(Cl)cc3n2)c1)C(=O)[O-].[Na+] | 4 | 2 |  |  | Kb [5]: 0.794 nM; FACO Activity (Mus musculus [12]): 128%; inhibition in vivo at 0.5 mg/kg (Rattus norvegicus [7]): 62% |
| CN(C)C(=O)c1ccccc1CCC(SCCC(=O)O)c1cccc(OCc2ccc3ccc(Cl)cc3n2)c1 (stereo not drawn) |  |  |  | 0.95 |  |
| CN(C)C(=O)CCSC(SCCC(=O)O)c1cccc(CCc2ccc3ccc(Cl)cc3n2)c1 (stereo not drawn) |  |  |  |  | IC50 [13]: 36 nM; IC50 [14]: 26 nM |
| CC(CSC(CCc1ccccc1C(=O)N(C)CO)c1cccc(OCc2ccc3ccc(Cl)cc3n2)c1)C(=O)O (stereo not drawn) |  |  |  | 3.6 |  |
| CCNC(=O)c1ccccc1CCC(SCC(CC)C(=O)[O-])c1cccc(OCc2ccc3ccc(Cl)cc3n2)c1.[Na+] (stereo not drawn) |  |  | 106 | 0.45 |  |

| Structure (SMILES) | IC50 [1] [nM] | IC50 [2] [nM] | clearance [3] [mL/min/kg] | IC50 [4] [nM] | further results |
| --- | --- | --- | --- | --- | --- |
| O=C([O-])CCSC(CCc1ccccc1-c1nc[nH]n1)c1cccc(OCc2ccc3ccc(Cl)cc3n2)c1.[Na+] (stereo not drawn) |  |  | 64 | 0.36 |  |
| CCC(CSC(CCc1ccccc1-c1nnnn1C)c1cccc(OCc2ccc3ccc(Cl)cc3n2)c1)C(=O)[O-].[Na+] (stereo not drawn) |  |  | 18 | 0.4 |  |
| CN(C)C(=O)CCSC(SCCC(=O)O)c1cccc(OCc2ccc3ccc(Cl)cc3n2)c1 (stereo not drawn) |  |  |  | 14 |  |
| CS(=O)(=O)Nc1ccccc1CCC(SCCC(=O)[O-])c1cccc(OCc2ccc3ccc(Cl)cc3n2)c1.[Na+] (stereo not drawn) | 0.6 | 0.56 | 131 |  |  |
| CC(CSC(CCc1ccccc1C(C)(C)O)c1cccc(OCc2ccc3ccc(Cl)cc3n2)c1)C(=O)[O-].[Na+] (stereo not drawn) | 0.85 | 0.5 | 12 |  |  |
| CC(CCC(SCCC(=O)O)c1cccc(/C=C/c2ccc3ccc(Cl)cc3n2)c1)CC(=O)N(C)C (stereo not drawn) |  |  |  | 1.3 |  |
| CC(CCC(SCCC(=O)O)c1cccc(OCc2ccc3ccc(Cl)cc3n2)c1)CC(=O)N(C)C (stereo not drawn) |  |  |  | 8.6 |  |
| C[C@H](CS[C@@H](CCc1ccccc1C(C)(C)O)c1cccc(OCc2ccc3ccc(Cl)cc3n2)c1)C(=O)[O-].[Na+] | 20 | 17 |  |  | Kb [5]: 5.01 nM; FACO Activity (Mus musculus [6]): 10%; inhibition in vivo at 0.5 mg/kg (Rattus norvegicus [7]): 47% |
| NS(=O)(=O)c1ccccc1CCC(SCCC(=O)[O-])c1cccc(OCc2ccc3ccc(Cl)cc3n2)c1.[Na+] (stereo not drawn) | 0.6 | 0.4 | 106 |  |  |
| CN(C)C(=O)CCSC(CCc1ccccc1C(=O)O)c1cccc(OCc2ccc3ccc(Cl)cc3n2)c1 (stereo not drawn) |  |  |  | 1.9 | clearance [11]: 15 mL/min/kg; inhibition in vivo at 0.5 mg/kg (Rattus norvegicus [15]): 54% |
| C[C@@H](CS[C@H](CCc1ccccc1C(C)(C)O)c1cccc(OCc2ccc3ccc(Cl)cc3n2)c1)C(=O)[O-].[Na+] | 0.3 | 0.2 |  |  | Kb [5]: 0.398 nM; FACO Activity (Mus musculus [12]): 155%; inhibition in vivo at 0.5 mg/kg (Rattus norvegicus [7]): 63% |
| CC(CSC(CCc1ccccc1C(=O)N(C)C)c1cccc(OCc2ccc3ccc(Cl)cc3n2)c1)C(=O)O (stereo not drawn) |  |  |  | 0.52 |  |
| CCC(CSC(CCc1ccccc1C#N)c1cccc(CCc2ccc3ccc(Cl)cc3n2)c1)C(=O)[O-].[Na+] (stereo not drawn) |  |  | 13 | 1 |  |
| CC(CSC(CCc1ccccc1[N+](=O)[O-])c1cccc(OCc2ccc3ccc(Cl)cc3n2)c1)C(=O)[O-].[Na+] (stereo not drawn) | 0.49 | 0.4 | 12 |  |  |
| CCC(CSC(CCc1ccccc1C(N)=O)c1cccc(OCc2ccc3ccc(Cl)cc3n2)c1)C(=O)[O-].[Na+] (stereo not drawn) |  |  | 58 | 0.47 |  |
| CCC(CSC(CCc1ccccc1S(C)(=O)=O)c1cccc(OCc2ccc3ccc(Cl)cc3n2)c1)C(=O)[O-].[Na+] (stereo not drawn) | 1 | 0.6 | 35 |  |  |
